Tests used:
[1] = system: hippocampus of TS and CO mice; test: Hippocampal neurogenesis, granule cell density and GAD+ boutons after chronic treatment; format: in vivo
From the text: Alterations in hippocampal morphology such as reductions in granule cell density and hippocampal neurogenesis have also been implicated in the learning deficits shown by Ts65Dn mice. Spatial learning is known to depend on the functional integrity of the hippocampus, a structure that plays a key role in information encoding and retrieving in the CNS. […] Also, neuronal survival of the cells that have undergone maturation was also normalized in TS mice, as shown by the increase in DAPI+ cells found in TS mice after chronic 8581 administration (p=0.026; FIG. 14).

Nf1+/− mice = test: Spatial learning of Nf1+/− mice in the Morris water maze; format: in vivo
Experimental: 1 week after handling, mice were trained with two consecutive trials per day for 8-9 days 30 minutes after i.p. injection of 8581 or vehicle. In each trial, mice were given 60 s to find the platform. After each trial, mice were put on the platform for 15 s. On the day of probe trial (Day 3, Day 5, Day 7, and Day 9) 60 s of probe trial was performed after training. […] Two different measures of spatial learning (% search in quadrant (FIG. 16) and average proximity to the target platform (FIG. 17)) show similarly, that active pharmaceutical compounds used in present invention rescue spatial learning deficits of Nf1+/− mice (CO/veh (n=10), Nf1/veh (n=9), CO/8581 (n=10), and Nf1/8581 (n=11).
Effects of active pharmaceutical compounds used in present invention on the performance of Nf1+/− mice were tested under conditions in which the spatial learning of the mutants was indistinguishable from controls (less extinction due to lower number of probe trials). Mean percentage of time spent in each quadrant during a probe trial in plotted in FIG. 18. Average proximity to the target quadrant is plotted in FIG. 19. […] On probe trial 1 and 2 (days 5 and 7), all groups searched selectively in the target quadrant (p<0.01), and there were no differences between groups.

Control mice (B16;129F1) = test: Contextual fear conditioning; format: in vivo
Experimental: Control mice (B16;129F1) were trained with a contextual fear-conditioning protocol using either one trial per day for one day (FIG. 20) or two consecutive days (FIG. 21). On the training day, 30 minutes after i.p. injection of 8581 or vehicle, mice were placed in training chamber. A foot shock (1 s, 0.4 mA) was delivered 40 s after placement. Conditioned response (percentage freezing time of the mice) was recorded 24 h after training by using automated procedures. Average freezing levels during the first 30 s of each training day and 24 hr after the last training trial were plotted.

[2] = system: Nf1+/− mice and control mice (B16;129F1); test: Rotarod, accelerating speeds, Nf1+/− and control mice; format: in vivo; details: Nf1+/− mutant or control mice, 1 mg/kg i.p.
Experimental: Control mice (B16;129F1) and Nf1+/− mice were treated with vehicle or with 8581 (n=10 for each of the 4 groups). 30 minutes after i.p. injection of 8581 (1 mg/kg) or vehicle, mice were tested with a rotarod protocol using accelerating speeds (4-40 rpm, maximal duration 300 s) for four trials with 30 min intertrial interval. FIG. 22 visualizes performance of control mice in the Rotarod and FIG. 23 illustrates the performance of Nf1+/− mice in the Rotarod.

[3] = 8581 concentration in serum after i.p. injection; format: in vivo, mice; details: ip; for concentration at 0.5 h: 0.5 h after i.p. injection; for concentration at 3 h: 3 h after i.p. injection; for concentration at 7 h: 7 h after i.p. injection; for concentration at 24 h: 24 h after i.p. injection
Experimental: Table 5. 8581 concentration in serum (ng/ml) of Nf1+/− and control mice 0.5, 3, 7, and 24 hours after i.p. injection

[4] = TS mice, chronic administration
[5] = B16;129F1, mouse, 0.1 mg/kg, control mice
[6] = B16;129F1, mouse, 1 mg/kg, control mice

FC(F)c1ncn2c1Cn1ncnc1-c1cc(Br)ccc1-2 [Compound 8581, 3-Bromo-10-difluoromethyl-9H-imidazo[1,5-a][1,2,4]triazolo[1,5-d][1,4]benzodiazepine]
number of GABAergic synapses (GAD+) in CO mice ([1]; CO mice, chronic treatment): non-significant tendency to increase | density of proliferating (Ki67+) cells in hippocampus [1, 4]: completely restored the density of proliferating cells | neuronal survival (DAPI+ cells, granular cell layer) [1, 4]: normalized | number of GAD positive boutons in hippocampus ([1]; TS mice, chronic treatment): decreased dramatically | performance of Nf1+/− mice under conditions that occlude their behavioral deficits (Nf1+/− mice; 1 mg/kg): does not affect the performance | spatial learning deficits of Nf1+/− mice (Nf1+/− mice; Nf1+/− mice, 1 mg/kg i.p. 30 minutes before training, probe trials): rescued the spatial learning deficits | contextual conditioning, training for two consecutive days (Control mice (B16;129F1); control mice, 1 mg/kg i.p.): significant increase in contextual conditioning | freezing at 24 hr after training (Control mice (B16;129F1); control mice, 3 mg/kg i.p., one training day): significantly enhanced freezing | contextual fear conditioning dose response curve (Control mice (B16;129F1); control mice, 0.3, 1.0 and 3.0 mg/kg): dose-dependent increase in contextual fear conditioning | performance in rotarod [2]: did not affect the performance | concentration at 0.5 h [3, 5]: 9.45 ± 3.05 ng/mL | concentration at 0.5 h [3, 6]: 271 ± 1 ng/mL | concentration at 3 h [3, 5]: < 0.5 ng/mL | concentration at 3 h [3, 6]: 11.9 ± 2.51 ng/mL | concentration at 7 h [3, 5]: < 0.5 ng/mL | concentration at 7 h [3, 6]: < 0.5 ng/mL | concentration at 24 h [3, 5]: < 0.5 ng/mL | concentration at 24 h [3, 6]: < 0.5 ng/mL | concentration at 0.5 h ([3]; mouse, 0.1 mg/kg, Nf1+/− mice): 11 ± 1.73 ng/mL | concentration at 0.5 h ([3]; mouse, 1 mg/kg, Nf1+/− mice): 192 ± 35 ng/mL | concentration at 3 h ([3]; mouse, 0.1 mg/kg, Nf1+/− mice): < 0.5 ng/mL | concentration at 3 h ([3]; mouse, 1 mg/kg, Nf1+/− mice): 8.95 ± 0.5 ng/mL | concentration at 7 h ([3]; mouse, 0.1 mg/kg, Nf1+/− mice): < 0.5 ng/mL | concentration at 7 h ([3]; mouse, 1 mg/kg, Nf1+/− mice): < 0.5 ng/mL | concentration at 24 h ([3]; mouse, 0.1 mg/kg, Nf1+/− mice): < 0.5 ng/mL | concentration at 24 h ([3]; mouse, 1 mg/kg, Nf1+/− mice): < 0.5 ng/mL

Source: patent US8835425B2, “Use of selective GABA A α5 negative allosteric modulators for the treatment of central nervous system conditions” (Hoffmann-La Roche Inc., priority 2010, dated 2014)
